Data reported in patent US20230085307A1, “PYRIDAZINONE COMPOUND AND HERBICIDE” (NISSAN CHEMICAL CORPORATION, priority 2019, published 2023).

Legend:
lambsquarters [1] = experiment: Test Example 4: herbicidal effect by soil treatment (Table 19, symbol O); assay type: in vivo, lambsquarters (Chenopodium album)
Method in brief: (§1)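 In this soil treatment, the formulated compound reached the seeds only through the soil: seeds were buried about 1.5 cm deep in sterilized diluvial soil, then the diluted emulsion was sprayed over the surface. After three weeks at 25° C. to 30° C. in a greenhouse, effects were graded on criteria from an earlier test.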

velvetleaf [2] = experiment: Test Example 5: herbicidal effect by foliage application, plastic box (Table 20, symbol M); assay type: in vivo, velvetleaf (Abutilon theophrasti); details: evaluated three weeks after application
Method in brief: (§2)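 Plants were sown into sterilized diluvial soil under about 1.5 cm cover and kept in a greenhouse at 25° C. to 30° C. Fourteen days on, foliage received an even spray of the diluted emulsion. Herbicidal or crop effect was judged three weeks afterwards.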

false cleavers = experiment: Test Example 4: herbicidal effect by soil treatment (Table 19, symbol Q); assay type: in vivo, false cleavers (Galium spurium)
Method in brief: as §1

lambsquarters [3] = experiment: Test Example 5: herbicidal effect by foliage application, plastic box (Table 20, symbol O); assay type: in vivo, lambsquarters (Chenopodium album); details: evaluated three weeks after application
Method in brief: as §2

redroot pigweed [4] = experiment: Test Example 4: herbicidal effect by soil treatment (Table 19, symbol N); assay type: in vivo, redroot pigweed (Amaranthus retroflexus)
Method in brief: as §1

green foxtail [5] = experiment: Test Example 4: herbicidal effect by soil treatment (Table 19, symbol G); assay type: in vivo, green foxtail (Setaria viridis)
Method in brief: as §1

blackgrass [6] = experiment: Test Example 5: herbicidal effect by foliage application, plastic box (Table 20, symbol J); assay type: in vivo, blackgrass (Alopecurus myosuroides); details: evaluated three weeks after application
Method in brief: as §2

green foxtail [7] = experiment: Test Example 5: herbicidal effect by foliage application, plastic box (Table 20, symbol G); assay type: in vivo, green foxtail (Setaria viridis); details: evaluated three weeks after application
Method in brief: as §2

persian speedwell = experiment: Test Example 5: herbicidal effect by foliage application, plastic box (Table 20, symbol R); assay type: in vivo, Persian speedwell (Veronica persica); details: evaluated three weeks after application
Method in brief: as §2

chickweed = experiment: Test Example 5: herbicidal effect by foliage application, plastic box (Table 20, symbol P); assay type: in vivo, common chickweed (Stellaria media); details: evaluated three weeks after application
Method in brief: as §2

velvetleaf [8] = experiment: Test Example 4: herbicidal effect by soil treatment (Table 19, symbol M); assay type: in vivo, velvetleaf (Abutilon theophrasti)
Method in brief: as §1

redroot pigweed [9] = experiment: Test Example 5: herbicidal effect by foliage application, plastic box (Table 20, symbol N); assay type: in vivo, redroot pigweed (Amaranthus retroflexus); details: evaluated three weeks after application
Method in brief: as §2

blackgrass [10] = experiment: Test Example 4: herbicidal effect by soil treatment (Table 19, symbol J); assay type: in vivo, blackgrass (Alopecurus myosuroides)
Method in brief: as §1

southern crabgrass [11] = experiment: Test Example 5: herbicidal effect by foliage application, plastic box (Table 20, symbol F); assay type: in vivo, southern crabgrass (Digitaria ciliaris); details: evaluated three weeks after application
Method in brief: as §2

Chinese sprangletop = experiment: Test Example 3: herbicidal effect by foliage application, Wagner pot (Table 18, symbol D); assay type: in vivo, chinese sprangletop (Leptochloa chinensis)
Method in brief: (§3)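 Plants were sown in alluvial soil held under 0.1–0.5 cm standing water and grown 14 days in a greenhouse at 25–30 °C. An emulsifiable formulation, water-diluted to the set dose, was then sprayed onto the foliage, and effects were scored three weeks later using previously defined criteria.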

southern crabgrass [12] = experiment: Test Example 4: herbicidal effect by soil treatment (Table 19, symbol F); assay type: in vivo, southern crabgrass (Digitaria ciliaris)
Method in brief: as §1

Italian ryegrass [13] = experiment: Test Example 5: herbicidal effect by foliage application, plastic box (Table 20, symbol K); assay type: in vivo, Italian ryegrass (Lolium multiflorum); details: evaluated three weeks after application
Method in brief: as §2

wild oat [14] = experiment: Test Example 4: herbicidal effect by soil treatment (Table 19, symbol I); assay type: in vivo, wild oat (Avena fatua)
Method in brief: as §1

wild oat [15] = experiment: Test Example 5: herbicidal effect by foliage application, plastic box (Table 20, symbol I); assay type: in vivo, wild oat (Avena fatua); details: evaluated three weeks after application
Method in brief: as §2

windgrass [16] = experiment: Test Example 4: herbicidal effect by soil treatment (Table 19, symbol L); assay type: in vivo, windgrass (Apera spica-venti)
Method in brief: as §1

windgrass [17] = experiment: Test Example 5: herbicidal effect by foliage application, plastic box (Table 20, symbol L); assay type: in vivo, windgrass (Apera spica-venti); details: evaluated three weeks after application
Method in brief: as §2

barnyard grass [18] = experiment: Test Example 4: herbicidal effect by soil treatment (Table 19, symbol H); assay type: in vivo, barnyard grass (Echinochloa crus-galli)
Method in brief: as §1

Italian ryegrass [19] = experiment: Test Example 4: herbicidal effect by soil treatment (Table 19, symbol K); assay type: in vivo, Italian ryegrass (Lolium multiflorum)
Method in brief: as §1

barnyard grass [20] = experiment: Test Example 5: herbicidal effect by foliage application, plastic box (Table 20, symbol H); assay type: in vivo, barnyard grass (Echinochloa crus-galli); details: evaluated three weeks after application
Method in brief: as §2

barnyard grass [21] = experiment: Test Example 3: herbicidal effect by foliage application, Wagner pot (Table 18, symbol H); assay type: in vivo, barnyard grass (Echinochloa crus-galli)
Method in brief: as §3

rice flat sedge = experiment: Test Example 3: herbicidal effect by foliage application, Wagner pot (Table 18, symbol E); assay type: in vivo, rice flat sedge (Cyperus iria)
Method in brief: as §3

[22] = amount of applied herbicide 310 g/ha
[23] = foliage application, AAH 310 g/ha
[24] = amount of applied herbicide 320 g/ha
[25] = 320 g/ha, foliage application after 14-day growth

Compound: Cc1nn(C)c(=O)c(-c2c(-c3ccc(OC(F)F)cc3)sc3ccc(F)cc23)c1OC(=S)Oc1ccccc1 [2-297]
- herbicidal effect on O: lambsquarters (lambsquarters [1]; [22]): 5 (Herbicidal rate of 90% or more (almost completely withered))
- M: velvetleaf, herbicidal effect (criteria 0-5) (velvetleaf [2]; [23]): 5 (Herbicidal rate of 90% or more (almost completely withered))
- herbicidal effect on Q: false cleavers (false cleavers; [22]): 0 (Herbicidal rate of 5% or less (almost no effect))
- O: lambsquarters, herbicidal effect (criteria 0-5) (lambsquarters [3]; [23]): 5 (Herbicidal rate of 90% or more (almost completely withered))
- herbicidal effect on N: redroot pigweed (redroot pigweed [4]; [22]): 5 (Herbicidal rate of 90% or more (almost completely withered))
- herbicidal effect on G: green foxtail (green foxtail [5]; [22]): 4 (Herbicidal rate of 70% or more and less than 90%)
- J: blackgrass, herbicidal effect (criteria 0-5) (blackgrass [6]; [23]): 3 (Herbicidal rate of 40% or more and less than 70%)
- G: green foxtail, herbicidal effect (criteria 0-5) (green foxtail [7]; [23]): 5 (Herbicidal rate of 90% or more (almost completely withered))
- R: persian speedwell, herbicidal effect (criteria 0-5) (persian speedwell; [23]): 5 (Herbicidal rate of 90% or more (almost completely withered))
- P: chickweed, herbicidal effect (criteria 0-5) (chickweed; [23]): 5 (Herbicidal rate of 90% or more (almost completely withered))
- herbicidal effect on M: velvetleaf (velvetleaf [8]; [22]): 5 (Herbicidal rate of 90% or more (almost completely withered))
- N: redroot pigweed, herbicidal effect (criteria 0-5) (redroot pigweed [9]; [23]): 5 (Herbicidal rate of 90% or more (almost completely withered))
- herbicidal effect on J: blackgrass (blackgrass [10]; [22]): 3 (Herbicidal rate of 40% or more and less than 70%)
- F: southern crabgrass, herbicidal effect (criteria 0-5) (southern crabgrass [11]; [23]): 1 (Herbicidal rate of 5% or more and less than 20%)
- herbicidal effect on D: Chinese sprangletop (Chinese sprangletop; [22]): 0 (Herbicidal rate of 5% or less (almost no effect))
- herbicidal effect on F: southern crabgrass (southern crabgrass [12]; [22]): 3 (Herbicidal rate of 40% or more and less than 70%)
- K: Italian ryegrass, herbicidal effect (criteria 0-5) (Italian ryegrass [13]; [23]): 5 (Herbicidal rate of 90% or more (almost completely withered))
- herbicidal effect on I: wild oat (wild oat [14]; [22]): 0 (Herbicidal rate of 5% or less (almost no effect))
- I: wild oat, herbicidal effect (criteria 0-5) (wild oat [15]; [23]): 2 (Herbicidal rate of 20% or more and less than 40%)
- herbicidal effect on L: windgrass (windgrass [16]; [22]): 0 (Herbicidal rate of 5% or less (almost no effect))
- L: windgrass, herbicidal effect (criteria 0-5) (windgrass [17]; [23]): 0 (Herbicidal rate of 5% or less (almost no effect))
- herbicidal effect on H: barnyard grass (barnyard grass [18]; [22]): 4 (Herbicidal rate of 70% or more and less than 90%)
- herbicidal effect on K: Italian ryegrass (Italian ryegrass [19]; [22]): 5 (Herbicidal rate of 90% or more (almost completely withered))
- H: barnyard grass, herbicidal effect (criteria 0-5) (barnyard grass [20]; [23]): 5 (Herbicidal rate of 90% or more (almost completely withered))
- herbicidal effect on H: barnyard grass (barnyard grass [21]; [22]): 5 (Herbicidal rate of 90% or more (almost completely withered))
- herbicidal effect on E: rice flat sedge (rice flat sedge; [22]): 5 (Herbicidal rate of 90% or more (almost completely withered))

Compound: Cc1nn(C)c(=O)c(-c2c(-c3ccc(Cl)cc3)sc3c(Cl)cccc23)c1O [4-017]
- Herbicidal effect by soil treatment, O: lambsquarters (lambsquarters [1]; [24]): 0 (Herbicidal rate of 5% or less (almost no effect))
- herbicidal effect on M: velvetleaf (evaluation grade 0-5) (velvetleaf [2]; [25]): 4 (Herbicidal rate of 70% or more and less than 90%)
- Herbicidal effect by soil treatment, Q: false cleavers (false cleavers; [24]): 0 (Herbicidal rate of 5% or less (almost no effect))
- herbicidal effect on O: lambsquarters (evaluation grade 0-5) (lambsquarters [3]; [25]): 2 (Herbicidal rate of 20% or more and less than 40%)
- Herbicidal effect by soil treatment, N: redroot pigweed (redroot pigweed [4]; [24]): 0 (Herbicidal rate of 5% or less (almost no effect))
- Herbicidal effect by soil treatment, G: green foxtail (green foxtail [5]; [24]): 0 (Herbicidal rate of 5% or less (almost no effect))
- herbicidal effect on J: blackgrass (evaluation grade 0-5) (blackgrass [6]; [25]): 3 (Herbicidal rate of 40% or more and less than 70%)
- herbicidal effect on G: green foxtail (evaluation grade 0-5) (green foxtail [7]; [25]): 0 (Herbicidal rate of 5% or less (almost no effect))
- herbicidal effect on R: persian speedwell (evaluation grade 0-5) (persian speedwell; [25]): 4 (Herbicidal rate of 70% or more and less than 90%)
- herbicidal effect on P: chickweed (evaluation grade 0-5) (chickweed; [25]): 5 (Herbicidal rate of 90% or more (almost completely withered))
- Herbicidal effect by soil treatment, M: velvetleaf (velvetleaf [8]; [24]): 0 (Herbicidal rate of 5% or less (almost no effect))
- herbicidal effect on N: redroot pigweed (evaluation grade 0-5) (redroot pigweed [9]; [25]): 5 (Herbicidal rate of 90% or more (almost completely withered))
- Herbicidal effect by soil treatment, J: blackgrass (blackgrass [10]; [24]): 0 (Herbicidal rate of 5% or less (almost no effect))
- herbicidal effect on F: southern crabgrass (evaluation grade 0-5) (southern crabgrass [11]; [25]): 0 (Herbicidal rate of 5% or less (almost no effect))
- herbicidal effect on Chinese sprangletop (D) (Chinese sprangletop; 320 g/ha): 0 (Herbicidal rate of 5% or less (almost no effect))
- Herbicidal effect by soil treatment, F: southern crabgrass (southern crabgrass [12]; [24]): 0 (Herbicidal rate of 5% or less (almost no effect))
- herbicidal effect on K: Italian ryegrass (evaluation grade 0-5) (Italian ryegrass [13]; [25]): 1 (Herbicidal rate of 5% or more and less than 20%)
- Herbicidal effect by soil treatment, I: wild oat (wild oat [14]; [24]): 0 (Herbicidal rate of 5% or less (almost no effect))
- herbicidal effect on I: wild oat (evaluation grade 0-5) (wild oat [15]; [25]): 3 (Herbicidal rate of 40% or more and less than 70%)
- Herbicidal effect by soil treatment, L: windgrass (windgrass [16]; [24]): 2 (Herbicidal rate of 20% or more and less than 40%)
- herbicidal effect on L: windgrass (evaluation grade 0-5) (windgrass [17]; [25]): 4 (Herbicidal rate of 70% or more and less than 90%)
- Herbicidal effect by soil treatment, H: barnyard grass (barnyard grass [18]; [24]): 0 (Herbicidal rate of 5% or less (almost no effect))
- Herbicidal effect by soil treatment, K: Italian ryegrass (Italian ryegrass [19]; [24]): 0 (Herbicidal rate of 5% or less (almost no effect))
- herbicidal effect on H: barnyard grass (evaluation grade 0-5) (barnyard grass [20]; [25]): 0 (Herbicidal rate of 5% or less (almost no effect))
- herbicidal effect on barnyard grass (H) (barnyard grass [21]; 320 g/ha): 4 (Herbicidal rate of 70% or more and less than 90%)
- herbicidal effect on rice flat sedge (E) (rice flat sedge; 320 g/ha): 3 (Herbicidal rate of 40% or more and less than 70%)
